Measurements: US6686445B1, “Synthetic antineoplastic agents derived from dolastatin 15 and methods of making same” (Arizona Board of Regents, acting for and on behalf of …, priority 1997, dated 2004)
Where a SMILES comes first, the peptide text is derived from it. [ ]: non-standard residue; d: D form. The star is where a group is joined. NH(4-Br-phenethyl) = Brc1ccc(CCN*)cc1; NMe2Val = CC(C)[C@@H](C(=O)*)N(C)C; X5 = O=[N+]([O-])c1ccc(CCN*)cc1; NHPhenethyl = c1ccc(CCN*)cc1; NMeV = CN[C@H](C(=O)O)C(C)C; Hiv = CC(C)[C@H](O)C(=O)O; X7 = Clc1cccc(CCN*)c1; NHBn = c1ccc(CN*)cc1; X6 = Fc1ccc(CCN*)cc1; X8 = Clc1ccccc1CCN*

Columns and labels:
[1] = system: human CA46 Burkitt lymphoma cells; assay: mitotic arrest in drug-treated CA46 Burkitt cells; assay type: cell-based; settings: 80 nM drug for 20 hours, control cells 3% mitotic
Procedure: To further verify the assumption that this entire series of compounds is acting intracellularly by interfering with tubulin function, the drug-treated Burkitt cells for mitotic arrest were analyzed.

[2] = system: murine P388 lymphocytic leukemia cells; assay: growth inhibition of murine P388 lymphocytic leukemia cells; assay type: cell-based; settings: dosage inhibiting tumor cell growth by 50%
Procedure: (§1) All compounds synthesized were first evaluated for in vitro antitumor activity against murine P388 lymphocytic leukemia cells and against murine L1210 leukemia cells and human CA46 Burkitt lymphoma cells using techniques described by Hamel & Lin (see: HAMEL, E., and LIN, C. M., […], Interaction of combretastatin, a new plant-derived antimitotic agent, with tubulin, Biochemical Pharmacology, 32, 3864). The compounds were also evaluated in the NCI's human tumor 60-cell-line in intro primary screen as described by Monks et al. (see: MONKS, A., SCUDIERO, et al., 1991, New colorimetric cytotoxicity assay for anticancer drug screening, Journal of the National Cancer Institute, 83, 757). Data analyses were performed using methods described by Boyd and Paull (see: BOYD, M. R., et al., 1995, Some practical considerations and applications of the National Cancer Institute in vitro anticancer drug discovery screen, Drug Development Research, 34, 91). A tubulin polymerization inhibition assay was performed according to a modified version of the procedure used previously and described by Muzaffar et al. (see: MUZAFFAR, A., et al., 1990, Antitubulin effects of derivatives of 3-demethylthiocolchicine, methylthio esters of natural colchicinoids, and thioketones derived from thiocolchicine, Comparison with colchicine, Journal of Medicinal Chemistry, 33, 567) to evaluate the effects of dolastatin 15 on cellular microtubule assembly. The new assay for these compounds employed a drug-tubulin preincubation (15 min.) with 10 μM tubulin in 0.8 M glutamate at 30° C., followed by addition of GTP and incubation (20 min.) at 30° C., with tubulin polymerization monitored turbidimetrically in GILFORD recording spectrophotometers.

Erwinia carotovora = assay: antimicrobial disk susceptibility test; assay type: cell-based; settings: twofold dilutions
Procedure: Antimicrobial disk susceptibility tests were performed according to the method established by the National Committee for Clinical Laboratory Standards (NCCLS, 1997). MUELLER-HINTON agar was used for susceptibility testing of Staphylococcus aureus, Enterococcus faecalis, Micrococcus luteus, Escherichia coli, Enterobacter cloacae, Bacillus subtilis, Pseudomonas aeruginosa, and Erwinia carotovora, Gonococcal Typing agar for Neisseria gonorrhoeae, and YM agar for Candida albicans and Cryptococcus neoformans. Immediately prior to susceptibility assays, compounds were reconstituted in sterile DMSO and twofold dilutions applied to sterile 6-mm disks. Zones of inhibition were read at 16 hours for bacterial cultures (except for M. luteus) and 42 hours for fungal cultures and M. luteus. MIC determinations were performed in duplicate.

[3] = system: human CA46 Burkitt lymphoma cells; settings: read-out: Human CA46 Burkitt Lymphoma IC50; cells counted after 20 hours
Procedure: as §1

[4] = system: NCI 60-cell-line in vitro human tumor panel; settings: read-out: Mean Panel GI50; mean ± S.D. of triplicate tests (* duplicate)
Procedure: as §1

[5] = system: murine L1210 leukemia cells; settings: read-out: Mouse Leukemia L1210 IC50; cells counted after 24 hours of growth
Procedure: as §1

In the case of `CC(C)[C@H](NC(=O)[C@H](C(C)C)N(C)C)C(=O)N(C)[C@H](C(=O)N1CCC[C@H]1C(=O)N1CCC[C@H]1C(=O)O[C@H](C(=O)NCc1ccccc1)C(C)C)C(C)C` [Compound 12b] (NMe2Val-V[NMeV]PP[Hiv]-NHBn), the “% Mitotic Cells” value [1] is reported as 46%, the “Mouse Leukemia P388 ED50” value [2] is reported as 0.42 ng/mL and the “Minimum inhibitory concentration, Erwinia carotovora” value (Erwinia carotovora) is reported as 50-100 μg/disk. It also gave an IC50 [3] of 0.3 nM, a GI50 [4] of 0.79 ± 0.1 nM and an IC50 [5] of 1 nM.
For `CC(C)[C@H](NC(=O)[C@H](C(C)C)N(C)C)C(=O)N(C)[C@H](C(=O)N1CCC[C@H]1C(=O)N1CCC[C@H]1C(=O)O[C@H](C(=O)NCCc1ccccc1)C(C)C)C(C)C` [Compound 12c, N-[(2S)-O-[(N,N-Dimethyl-valyl)-valyl-(N-methyl-valyl)-prolyl-prolyl]-2-hydroxyisovalerlyl]-2-phenethylamide] (NMe2Val-V[NMeV]PP[Hiv]-NHPhenethyl), the “% Mitotic Cells” value [1] was 45%, the “Mouse Leukemia P388 ED50” value [2] was 0.26 ng/mL and the “Minimum inhibitory concentration, Erwinia carotovora” value (Erwinia carotovora) was 50-100 μg/disk. It also gave an IC50 [3] of 0.3 nM, a GI50 [4] of 1.06 ± 0.48 nM and an IC50 [5] of 2 nM.
For `CC(C)[C@H](NC(=O)[C@H](C(C)C)N(C)C)C(=O)N(C)[C@H](C(=O)N1CCC[C@H]1C(=O)N1CCC[C@H]1C(=O)O[C@H](C(=O)NCCc1ccc(F)cc1)C(C)C)C(C)C` [Compound 12d] (NMe2Val-V[NMeV]PP[Hiv]-X6), the “% Mitotic Cells” value [1] was 46%, the “Mouse Leukemia P388 ED50” value [2] was 0.55 ng/mL and the IC50 [3] was 0.8 nM. The GI50 [4] was 0.89 ± 0.29 nM and the IC50 [5] was 4 nM.
In the case of `CC(C)[C@H](NC(=O)[C@H](C(C)C)N(C)C)C(=O)N(C)[C@H](C(=O)N1CCC[C@H]1C(=O)N1CCC[C@H]1C(=O)O[C@H](C(=O)NCCc1cccc(Cl)c1)C(C)C)C(C)C` [Compound 12f] (NMe2Val-V[NMeV]PP[Hiv]-X7), the “% Mitotic Cells” value [1] is reported as 38%, the “Mouse Leukemia P388 ED50” value [2] is reported as 0.37 ng/mL and the IC50 [3] is reported as 2 nM. It also gave a GI50 [4] of 0.83 ± 0.41 nM and an IC50 [5] of 4 nM.
With `CC(C)[C@H](NC(=O)[C@H](C(C)C)N(C)C)C(=O)N(C)[C@H](C(=O)N1CCC[C@H]1C(=O)N1CCC[C@H]1C(=O)O[C@H](C(=O)NCCc1ccccc1Cl)C(C)C)C(C)C` [Compound 12g] (NMe2Val-V[NMeV]PP[Hiv]-X8) the “% Mitotic Cells” value [1] was 26%, the “Mouse Leukemia P388 ED50” value [2] was 0.33 ng/mL and the IC50 [3] was 2 nM. The GI50 [4] was 0.81 ± 0.31 nM and the IC50 [5] was 4 nM.
With `CC(C)[C@H](NC(=O)[C@H](C(C)C)N(C)C)C(=O)N(C)[C@H](C(=O)N1CCC[C@H]1C(=O)N1CCC[C@H]1C(=O)O[C@H](C(=O)NCCc1ccc(Br)cc1)C(C)C)C(C)C` [Compound 12h] (NMe2Val-V[NMeV]PP[Hiv]-{NH(4-Br-phenethyl)}) the “% Mitotic Cells” value [1] was 48%, the “Mouse Leukemia P388 ED50” value [2] was 0.36 ng/mL and the IC50 [3] was 2 nM. It also gave a GI50 [4] of 0.81 ± 0.15 nM and an IC50 [5] of 2 nM.
`CC(C)[C@H](NC(=O)[C@H](C(C)C)N(C)C)C(=O)N(C)[C@H](C(=O)N1CCC[C@H]1C(=O)N1CCC[C@H]1C(=O)O[C@H](C(=O)NCCc1ccc([N+](=O)[O-])cc1)C(C)C)C(C)C` [Compound 12i] (NMe2Val-V[NMeV]PP[Hiv]-X5) was tested, and the “% Mitotic Cells” value [1] was 36%, the “Mouse Leukemia P388 ED50” value [2] was 0.60 ng/mL and the IC50 [3] was 3 nM. For the same compound, the GI50 [4] was 0.94 ± 0.41 nM and the IC50 [5] was 4 nM.
For `COC(=O)[C@H](CCSC)NC(=O)[C@@H](OC(=O)[C@@H]1CCCN1C(=O)[C@@H]1CCCN1C(=O)[C@H](C(C)C)N(C)C(=O)[C@@H](NC(=O)[C@H](C(C)C)N(C)C)C(C)C)C(C)C` [Compound 12n] (NMe2Val-V[NMeV]PP[Hiv]M-OMe), the “% Mitotic Cells” value [1] was 44%, the “Mouse Leukemia P388 ED50” value [2] was 0.55 ng/mL and the IC50 [3] was 3 nM. For the same compound, the GI50 [4] was 2.93 ± 0.93 nM and the IC50 [5] was 3 nM.
For `COC(=O)[C@@H]1CCCN1C(=O)[C@@H](OC(=O)[C@@H]1CCCN1C(=O)[C@@H]1CCCN1C(=O)[C@H](C(C)C)N(C)C(=O)[C@@H](NC(=O)[C@H](C(C)C)N(C)C)C(C)C)C(C)C` [Compound 12o] (NMe2Val-V[NMeV]PP[Hiv]P-OMe), the “% Mitotic Cells” value [1] was 42%, the “Mouse Leukemia P388 ED50” value [2] was 3.1 ng/mL and the IC50 [3] was 2 nM. For the same compound, the GI50 [4] was 4.48 ± 0.44 nM and the IC50 [5] was 4 nM.
